# Like-named read-outs stand apart in the source and are kept apart here.
# Assays:
# yeast cells = conditions: 1 mM nitrite, light 3 doses of 6.4 J/cm^2
# Excerpt: The effects of broad spectrum light on the expression of the nuclear COX genes for Cco and the overall level of cellular respiration were examined. Because cytochrome c oxidase is a major regulator of respiration and because the nuclear genes (COX) for cytochrome c oxidase are highly regulated by a variety of environmental factors and function to regulate the overall activity of Cco, their level of expression provides a useful measure for the long-term effects of light on Cco. Similarly, the rate of respiration per se provides a direct measure of the effects of light on the entire respiratory chain.
# Yeast cells were grown in liquid media for three hours, which is equivalent to the time it takes for one cell division. […]
# Light from a Broadband 50 watt Xenon/Halogen Floodlight was administered at the beginning of each hour for a total of 3 doses, each at 6.4 J/cm^2 (105 mW/cm^2). After 3 hours, cells were harvested and analyzed for measurement of gene expression (by quantitiative PCR), or respiration (by polarographic oxygen consumption). qPCR was performed with primers designed for COX of Cco subunits COX4, COX5a, COX5b, COX6, and COX8. Each sample was run in duplicate and gene expression was quantified by normalizing to PMAI, a yeast gene that is expressed at constant levels, irrespective of the environment in which cells are grown.
# NT2 cells = assay: Oxidative stress induced APP processing in NT2 cells; assay type: cell-based; conditions: for APP processing as assessed by Aβ1-42 production: FIG. 17
# Excerpt: Broadband light reverses oxidative stress induced APP processing to Aβ1-42. […] Broad band light (7.5 Joules total dose) reversed the oxidative stress affects back to control levels (FIG. 17).
# Broadband light reverses oxidative stress induced APP processing to Aβ1-40. […] Broad band light (7.5 Joules total dose) reversed the oxidative stress affects back to control levels (FIG. 18).
# mitochondrial Cco = molecular target: T1, mitochondrial Cco (Mus musculus, UniProt P00397); assay: Cco/NO activity (nitrite-dependent NO synthesis) in cerebrum mitochondria, NO electrode; assay type: biochemical; conditions: hypoxic conditions, ascorbate/TMPD as electron donor pair, cerebrum mitochondria of 7-12 day old mice
# T1 construct: These experiments used mitochondria isolated from the cerebrum of 7-12 day old mice; from tissue; host or cells: mitochondria from mouse cerebrum (7-12 day old mice)
# Excerpt: We have studied Cco/NO activity in both human endothelial cells and mouse brain nervous tissue. All of the assays for Cco/NO activity were done in a closed chamber, as described elsewhere (Castello et al. 2006, Cell Metabolism 3, 277-287). Cells or mitochondria were allowed to respire and consume oxygen all of the oxygen in the chamber before the addition of nitrite, which initiated the reaction.
# Results with mouse nerve cells. These experiments used mitochondria isolated from the cerebrum of 7-12 day old mice. Using the same assay we used for endothelial cell mitochondria, we assayed Cco/NO activity under hypoxic conditions with ascorbate/TMPD as an electron donor pair. […] To confirm that we had measured NO synthesis we added PTIO, an NO scavenger.
smiles,measurement,setting,value
"O=NO [+Nitrite, nitrite]",Oxygen Consumption,yeast cells; Hypoxia (1% O2),14.27 ± 0.26 nmol/min/mg cells
same,Oxygen Consumption,yeast cells; Normoxia,15.21 ± 0.47 nmol/min/mg cells
CCCCCC(O)/C=C/C=O (stereo not drawn) [FINE],APP processing as assessed by Aβ1-42 production,NT2 cells,dramatic increases
same,APP processing as assessed by Aβ1-40 production,NT2 cells; FIG. 18,dramatic increases
OO [H2O2],APP processing as assessed by Aβ1-42 production,NT2 cells,dramatic increases
CC1(C)N([O])C(c2ccccc2)=[N+]([O-])C1(C)C [PTIO],Removal of the NO produced by mitochondrial Cco (NO scavenger),mitochondrial Cco,completely removes the NO produced
